The values below are quoted from earlier work in patent publication US20260335281A1, “PHARMACEUTICAL COMPOSITION COMPRISING CENTANAFADINE” (OTSUKA PHARMACEUTICAL CO., LTD., priority 2022, published 2026).

The subject of series [1] is serotonin (5-HT) reuptake.
For series [2], the system named is norepinephrine (NE) reuptake.
Where [3] appears, read: fold less than against norepinephrine reuptake, background statement.

`c1ccc2cc([C@]34CNC[C@H]3C4)ccc2c1` [(1R,5S)-1-(naphthalen-2-yl)-3-azabicyclo[3.1.0]hexane]: the “effectiveness against serotonin (5-HT) reuptake, fold less” value in series [1] (setting [3]) is reported as 14 fold. Besides, in series [1] (in words, PL 1 (JP 5184354 B)), the “inhibition of serotonin reuptake” value is on record as “can inhibit the reuptake”. In series [2] (compared with DA and 5-HT reuptake, background statement), the “effectiveness against norepinephrine (NE) reuptake” value is recorded as “most effective”. In addition, in series [2] (in words, PL 1 (JP 5184354 B)), the “inhibition of norepinephrine reuptake” value is “can inhibit the reuptake”. The “effectiveness against dopamine (DA) reuptake, fold less” value in the series with dopamine (DA) reuptake (setting [3]) is reported as 6 fold. In addition, the “inhibition of dopamine reuptake” value with dopamine (DA) reuptake (in words, PL 1 (JP 5184354 B)) is recorded as “can inhibit the reuptake”.
